Patent US20210115104A1, “AMYLIN ANALOGUES” (Zealand Pharma A/S, priority 2015, published 2021)
*1 amine or outer side, *2 acyl side, *3 side chain or, on linkers, in order; H or OH if unused. Where a SMILES comes first, the peptide text is derived from it. Bridges are numbered along the chain shown (N, C = ends). [ ]: non-standard residue; d: D form. The star is where a group is joined. C20 diacid = O=C(O)CCCCCCCCCCCCCCCCCCC(=O)*; γGlu = O=C(O)[C@H](CCC(=O)[*:2])N[*:1]; Hyp = O=C(O)[C@@H]1C[C@@H](O)CN1; NMeI = CC[C@H](C)[C@H](NC)C(=O)O; Sar = CNCC(=O)O

Key:
[1] = Pharmacokinetic (PK) profiling in rats; assay type: in vivo, rat; parameters: CI/F (apparent clearance values): unit not given here; details: Sprague Dawley male rats, single sc 30 nmol/kg
Experimental: Sprague Dawley male rats were given a single subcutaneous (sc) bolus of each peptide to be tested, as specified below. 30 nmol/kg doses of compound were administered. Blood samples were drawn from the tail vein prior to dosing and at 24, 48, 72, 96 and 168 hours after dosing. Blood samples were taken from two rats at each time point, and only 2 blood samples were drawn from each rat, i.e. […] were used for each compound. The rats were euthanized immediately after the last blood sampling by concussion and cervical dislocation.
The dosing vehicle used for each test peptide was a mannitol-containing histidine buffer (pH 7.0). Plasma samples were analyzed after precipitation with ethanol by liquid chromatography mass spectrometry (LC-MS/MS). Mean plasma concentrations were used for calculation of the pharmacokinetic parameters using the non-compartmental approach in Phoenix WinNonlin 6.3.
Plasma terminal elimination half-life (t1/2) was determined as ln(2)/λz, where λz is the magnitude of the slope of the log linear regression of the log concentration versus time profile during the terminal phase. Apparent clearance (CL/F) was determined as dose/AUCinf (sc), where AUCinf is the area under the plasma concentration vs. time curve extrapolated to infinity (AUCinf=AUClast+Clast/λz, where Clast is the last observed plasma concentration).

[2] = Assessment of physical stability (Thioflavin T fibrillation); assay type: physicochemical; parameters: key: FND = fibrillation not detected; FD = fibrillation detected; details: 1 mg/ml, 40° C., ThT; for Fibrillation pH 4.0 (Ac): 50 mM acetate buffer pH 4.0, 96 hours; for Fibrillation pH 7.0 (His): 50 mM histidine buffer pH 7.0, 96 hours; for Fibrillation pH 7.0 (Phos.): 50 mM phosphate buffer pH 7.0, 96 hours
Method in brief: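 Fibrillation lag-time, in hours, taken where regressions of the initial stable phase and the growth phase intersect. ThT (40 μM) fluorescence monitored at 40 °C for 96 h, 10-min reads each preceded by 300 s mixing. Peptide at 1 mg/ml in 50 mM buffers: phosphate or histidine pH 7.0, acetate pH 4.0.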

Compound	CI/F (apparent clearance values) [1]	Fibrillation pH 4.0 (Ac) [2]	Fibrillation pH 7.0 (His) [2]	Fibrillation pH 7.0 (Phos.) [2]	half-life ([1]; rat, plasma, read-out: Plasma terminal elimination half-life t1/2 (converted))
CC[C@H](C)[C@@H](C(=O)N[C@@H](CC(C)C)C(=O)N[C@@H](CO)C(=O)N[C@@H](CO)C(=O)N[C@H](C(=O)N[C@@H](CCC(=O)O)C(=O)N[C@H](C(=O)NCC(=O)N[C@@H](CO)C(=O)N[C@@H](CC(N)=O)C(=O)N[C@H](C(=O)N1C[C@H](O)C[C@H]1C(N)=O)[C@@H](C)O)C(C)C)[C@@H](C)O)N(C)C(=O)[C@H](C)NC(=O)CN(C)C(=O)[C@H](Cc1ccccc1)NC(=O)[C@H](CO)NC(=O)[C@H](CO)NC(=O)[C@H](CCCNC(=N)N)NC(=O)[C@H](CC(N)=O)NC(=O)[C@H](CC(C)C)NC(=O)[C@H](Cc1ccccc1)NC(=O)[C@H](Cc1c[nH]cn1)NC(=O)[C@H](C)NC(=O)[C@H](CC(C)C)NC(=O)[C@H](CCCNC(=N)N)NC(=O)[C@H](CCC(=O)O)NC(=O)[C@@H](NC(=O)[C@H](C)NC(=O)[C@@H]1CSSC[C@H](NC(=O)[C@H](CCCNC(=N)N)NC(=O)CC[C@H](NC(=O)CCCCCCCCCCCCCCCCCCC(=O)O)C(=O)O)C(=O)NCC(=O)N[C@@H]([C@@H](C)O)C(=O)N[C@@H](C)C(=O)N[C@@H]([C@@H](C)O)C(=O)N1)[C@@H](C)O [Compound 6, [19CD]-isoGlu-R-C( )-GTAT-C( )-ATERLAHFLNRSSF-Gly(Me)-A-Ile(Me)-LSSTEVGSNT-Hyp-NH2] ({C20 diacid-γGlu}-RCGTATCATERLAHFLNRSSF[Sar]A[NMeI]LSSTEVGSNT[Hyp]-NH2; disulfide 2-7)	0.0069	FND	FND	FND	
CC[C@H](C)[C@@H](C(=O)N[C@@H](CC(C)C)C(=O)N[C@@H](CO)C(=O)N[C@@H](CO)C(=O)N[C@H](C(=O)N[C@@H](CCC(=O)O)C(=O)N[C@H](C(=O)NCC(=O)N[C@@H](CO)C(=O)N[C@@H](CC(N)=O)C(=O)N[C@H](C(=O)N1CCC[C@H]1C(N)=O)[C@@H](C)O)C(C)C)[C@@H](C)O)N(C)C(=O)[C@H](C)NC(=O)CN(C)C(=O)[C@H](Cc1ccccc1)NC(=O)[C@H](CO)NC(=O)[C@H](CO)NC(=O)[C@H](CCCNC(=N)N)NC(=O)[C@H](Cc1c[nH]cn1)NC(=O)[C@H](CC(C)C)NC(=O)[C@H](Cc1ccccc1)NC(=O)[C@H](Cc1c[nH]cn1)NC(=O)[C@H](C)NC(=O)[C@H](CC(C)C)NC(=O)[C@H](CCCNC(=N)N)NC(=O)[C@H](CCC(=O)O)NC(=O)[C@@H](NC(=O)[C@H](C)NC(=O)[C@@H]1CSSC[C@H](NC(=O)[C@H](CCCNC(=N)N)NC(=O)CC[C@H](NC(=O)CCCCCCCCCCCCCCCCCCC(=O)O)C(=O)O)C(=O)NCC(=O)N[C@@H]([C@@H](C)O)C(=O)N[C@@H](C)C(=O)N[C@@H]([C@@H](C)O)C(=O)N1)[C@@H](C)O [Compound 15, [19CD]-isoGlu-R-C( )-GTAT-C( )-ATERLAHFLHRSSF-Gly(Me)-A-Ile(Me)-LSSTEVGSNTP-NH2] ({C20 diacid-γGlu}-RCGTATCATERLAHFLHRSSF[Sar]A[NMeI]LSSTEVGSNTP-NH2; disulfide 2-7)	0.0116	FND	FD	FND	

Second part, the compound after the results:

CI/F (apparent clearance values) [1]	Fibrillation pH 4.0 (Ac) [2]	Fibrillation pH 7.0 (His) [2]	Fibrillation pH 7.0 (Phos.) [2]	half-life ([1]; rat, plasma, read-out: Plasma terminal elimination half-life t1/2 (converted))	Compound
0.0128	FND	FND	FND		CC[C@H](C)[C@@H](C(=O)N[C@@H](CC(C)C)C(=O)N[C@@H](CO)C(=O)N[C@@H](CO)C(=O)N[C@H](C(=O)N[C@@H](CCC(=O)O)C(=O)N[C@H](C(=O)NCC(=O)N[C@@H](CO)C(=O)N[C@@H](CO)C(=O)N[C@H](C(=O)N1C[C@H](O)C[C@H]1C(N)=O)[C@@H](C)O)C(C)C)[C@@H](C)O)N(C)C(=O)[C@H](C)NC(=O)CN(C)C(=O)[C@H](Cc1ccccc1)NC(=O)[C@H](CO)NC(=O)[C@H](CO)NC(=O)[C@H](CCCNC(=N)N)NC(=O)[C@H](CCC(N)=O)NC(=O)[C@H](CC(C)C)NC(=O)[C@H](Cc1ccccc1)NC(=O)[C@H](Cc1c[nH]cn1)NC(=O)[C@H](C)NC(=O)[C@H](CC(C)C)NC(=O)[C@H](CCCNC(=N)N)NC(=O)[C@H](CCC(=O)O)NC(=O)[C@@H](NC(=O)[C@H](C)NC(=O)[C@@H]1CSSC[C@H](NC(=O)[C@H](CCCNC(=N)N)NC(=O)CC[C@H](NC(=O)CCCCCCCCCCCCCCCCCCC(=O)O)C(=O)O)C(=O)NCC(=O)N[C@@H]([C@@H](C)O)C(=O)N[C@@H](C)C(=O)N[C@@H]([C@@H](C)O)C(=O)N1)[C@@H](C)O [Compound 28, [19CD]-isoGlu-R-C( )-GTAT-C( )-ATERLAHFLQRSSF-Gly(Me)-A-Ile(Me)-LSSTEVGSST-Hyp-NH2] ({C20 diacid-γGlu}-RCGTATCATERLAHFLQRSSF[Sar]A[NMeI]LSSTEVGSST[Hyp]-NH2; disulfide 2-7)
0.0148	FND	FND	FND		CC[C@H](C)[C@@H](C(=O)N[C@@H](CC(C)C)C(=O)N[C@@H](CO)C(=O)N[C@@H](CO)C(=O)N[C@H](C(=O)N[C@@H](CCC(=O)O)C(=O)N[C@H](C(=O)NCC(=O)N[C@@H](CO)C(=O)N[C@@H](CO)C(=O)N[C@H](C(=O)N1CCC[C@H]1C(N)=O)[C@@H](C)O)C(C)C)[C@@H](C)O)N(C)C(=O)[C@H](C)NC(=O)CN(C)C(=O)[C@H](Cc1ccccc1)NC(=O)[C@H](CO)NC(=O)[C@H](CO)NC(=O)[C@H](CCCNC(=N)N)NC(=O)[C@H](CCC(N)=O)NC(=O)[C@H](CC(C)C)NC(=O)[C@H](Cc1ccccc1)NC(=O)[C@H](Cc1c[nH]cn1)NC(=O)[C@H](C)NC(=O)[C@H](CC(C)C)NC(=O)[C@H](CCCNC(=N)N)NC(=O)[C@H](CCC(=O)O)NC(=O)[C@@H](NC(=O)[C@H](C)NC(=O)[C@@H]1CSSC[C@H](NC(=O)[C@H](CCCNC(=N)N)NC(=O)CC[C@H](NC(=O)CCCCCCCCCCCCCCCCCCC(=O)O)C(=O)O)C(=O)NCC(=O)N[C@@H]([C@@H](C)O)C(=O)N[C@@H](C)C(=O)N[C@@H]([C@@H](C)O)C(=O)N1)[C@@H](C)O [Compound 34, [19CD]-isoGlu-R-C( )-GTAT-C( )-ATERLAHFLQRSSF-Gly(Me)-A-Ile(Me)-LSSTEVGSSTP-NH2] ({C20 diacid-γGlu}-RCGTATCATERLAHFLQRSSF[Sar]A[NMeI]LSSTEVGSSTP-NH2; disulfide 2-7)
0.0117	FND	FND	FD	25.7 h	CC[C@H](C)[C@@H](C(=O)N[C@@H](CC(C)C)C(=O)N[C@@H](CO)C(=O)N[C@@H](CO)C(=O)N[C@H](C(=O)N[C@@H](CCC(=O)O)C(=O)N[C@H](C(=O)NCC(=O)N[C@@H](CO)C(=O)N[C@@H](CO)C(=O)N[C@H](C(=O)N1CCC[C@H]1C(N)=O)[C@@H](C)O)C(C)C)[C@@H](C)O)N(C)C(=O)[C@H](C)NC(=O)CN(C)C(=O)[C@H](Cc1ccccc1)NC(=O)[C@H](CO)NC(=O)[C@H](CO)NC(=O)[C@H](CCCNC(=N)N)NC(=O)[C@H](CCC(=O)O)NC(=O)[C@H](CC(C)C)NC(=O)[C@H](Cc1ccccc1)NC(=O)[C@H](Cc1c[nH]cn1)NC(=O)[C@H](C)NC(=O)[C@H](CC(C)C)NC(=O)[C@H](CCCNC(=N)N)NC(=O)[C@H](CCC(=O)O)NC(=O)[C@@H](NC(=O)[C@H](C)NC(=O)[C@@H]1CSSC[C@H](NC(=O)[C@H](CCCNC(=N)N)NC(=O)CC[C@H](NC(=O)CCCCCCCCCCCCCCCCCCC(=O)O)C(=O)O)C(=O)NCC(=O)N[C@@H]([C@@H](C)O)C(=O)N[C@@H](C)C(=O)N[C@@H]([C@@H](C)O)C(=O)N1)[C@@H](C)O [Compound 36, [19CD]-isoGlu-R-C( )-GTAT-C( )-ATERLAHFLERSSF-Gly(Me)-A-Ile(Me)-LSSTEVGSSTP-NH2] ({C20 diacid-γGlu}-RCGTATCATERLAHFLERSSF[Sar]A[NMeI]LSSTEVGSSTP-NH2; disulfide 2-7)
